Assay results from ChEMBL document CHEMBL1133042, “Convergent synthesis of ribonuclease L-active 2',5'-oligoadenylate-peptide nucleic acids” (Bioorg Med Chem Lett, 2000).

Columns and labels:
[1] = molecular target: T1, 2-5A-dependent ribonuclease (Homo sapiens) (UniProt Q05823); assay: Relative binding affinity of compound to human recombinant Ribonuclease L, compared to that of 2-5A standard (Crel=1); No binding detected
T1 sequence (whole entry): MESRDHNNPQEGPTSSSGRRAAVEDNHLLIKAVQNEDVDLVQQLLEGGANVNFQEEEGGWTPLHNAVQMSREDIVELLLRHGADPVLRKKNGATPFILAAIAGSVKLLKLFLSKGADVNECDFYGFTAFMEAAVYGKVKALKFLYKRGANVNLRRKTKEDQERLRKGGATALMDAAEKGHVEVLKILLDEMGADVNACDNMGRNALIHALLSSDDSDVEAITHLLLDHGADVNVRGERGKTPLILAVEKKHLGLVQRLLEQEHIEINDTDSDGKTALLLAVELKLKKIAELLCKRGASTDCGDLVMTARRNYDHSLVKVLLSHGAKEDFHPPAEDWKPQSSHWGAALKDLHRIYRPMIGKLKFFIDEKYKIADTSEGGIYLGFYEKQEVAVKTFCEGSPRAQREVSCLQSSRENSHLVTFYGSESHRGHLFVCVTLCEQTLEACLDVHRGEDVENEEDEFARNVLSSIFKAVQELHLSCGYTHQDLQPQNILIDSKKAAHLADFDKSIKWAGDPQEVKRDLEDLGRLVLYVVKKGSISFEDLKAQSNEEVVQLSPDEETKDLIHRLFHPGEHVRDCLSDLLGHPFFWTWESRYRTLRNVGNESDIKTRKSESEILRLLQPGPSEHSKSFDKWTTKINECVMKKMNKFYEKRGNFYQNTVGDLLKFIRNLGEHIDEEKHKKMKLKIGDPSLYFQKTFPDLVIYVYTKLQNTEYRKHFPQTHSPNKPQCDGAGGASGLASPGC

[2] = molecular target: T1, 2-5A-dependent ribonuclease (Homo sapiens); assay: Relative ability of compound to activate Ribonuclease L to cleave poly(U)p[32P]Cp, compared to that of 2-5A standard (Crel=1); No cleavage detected
[3] = molecular target: T1, 2-5A-dependent ribonuclease (Homo sapiens); assay: Relative binding affinity of compound to human recombinant Ribonuclease L, compared to that of 2-5A standard (Crel=1)
[4] = molecular target: T1, 2-5A-dependent ribonuclease (Homo sapiens); assay: Relative ability of compound to activate Ribonuclease L to cleave poly(U)p[32P]Cp, compared to that of 2-5A standard (Crel=1)

Structure (SMILES)	Crel [1]	Crel [2]	Crel [3]	Crel [4]
Cc1cn(CC(=O)N(CCNC(=O)CN(CCNC(=O)CN(CCNC(=O)CN(CCNC(=O)COCCOCCNC(=O)COCCOCCN2CC(COP(=O)(O)O)OC(n3cnc4c(N)ncnc43)C2)C(=O)Cn2cc(C)c(=O)[nH]c2=O)C(=O)Cn2cc(C)c(=O)[nH]c2=O)C(=O)Cn2cc(C)c(=O)[nH]c2=O)CC(N)=O)c(=O)[nH]c1=O (stereo not given)	No binding	No cleavage	–	–
Cc1cn(CC(=O)N(CCNC(=O)CN(CCNC(=O)CN(CCNC(=O)CN(CCNC(=O)COCCOCCNC(=O)COCCOCCN2C[C@@H](COP(=O)(O)O[C@@H]3[C@H](O)[C@@H](COP(=O)(O)O)O[C@H]3n3cnc4c(N)ncnc43)O[C@@H](n3cnc4c(N)ncnc43)C2)C(=O)Cn2cc(C)c(=O)[nH]c2=O)C(=O)Cn2cc(C)c(=O)[nH]c2=O)C(=O)Cn2cc(C)c(=O)[nH]c2=O)CC(N)=O)c(=O)[nH]c1=O	No binding	No cleavage	–	–
CO[C@H]1[C@@H](OP(=O)(O)OC[C@H]2O[C@@H](n3cnc4c(N)ncnc43)[C@H](OP(=O)(O)OC[C@@H]3CN(CCOCCOCC(=O)NCCOCCOCC(=O)NCCN(CC(=O)NCCN(CC(=O)NCCN(CC(=O)NCCN(CC(N)=O)C(=O)Cn4cc(C)c(=O)[nH]c4=O)C(=O)Cn4cc(C)c(=O)[nH]c4=O)C(=O)Cn4cc(C)c(=O)[nH]c4=O)C(=O)Cn4cc(C)c(=O)[nH]c4=O)C[C@H](n4cnc5c(N)ncnc54)O3)[C@@H]2O)[C@H](n2cnc3c(N)ncnc32)O[C@@H]1COP(=O)(O)O	–	–	0.7	47.6
CO[C@H]1[C@@H](OP(=O)(O)OC[C@H]2O[C@@H](n3cnc4c(N)ncnc43)[C@H](OP(=O)(O)OC[C@H]3O[C@@H](n4cnc5c(N)ncnc54)[C@H](OP(=O)(O)OC[C@H]4O[C@@H](n5cnc6c(N)ncnc65)[C@H](OP(=O)(O)O[C@@H]5CN(CCOCCOCC(=O)NCCOCCOCC(=O)NCCN(CC(=O)NCCN(CC(=O)NCCN(CC(=O)NCCN(CC(N)=O)C(=O)Cn6cc(C)c(=O)[nH]c6=O)C(=O)Cn6cc(C)c(=O)[nH]c6=O)C(=O)Cn6cc(C)c(=O)[nH]c6=O)C(=O)Cn6cc(C)c(=O)[nH]c6=O)C[C@H](n6cnc7c(N)ncnc76)O5)[C@@H]4O)[C@@H]3OC)[C@@H]2O)[C@H](n2cnc3c(N)ncnc32)O[C@@H]1COP(=O)(O)O	–	–	1	14
Nc1ncnc2c1ncn2[C@@H]1O[C@H](COP(=O)(O)O[C@@H]2[C@H](O)[C@@H](COP(=O)(O)O[C@@H]3[C@H](O)[C@@H](COP(=O)(O)O)O[C@H]3n3cnc4c(N)ncnc43)O[C@H]2n2cnc3c(N)ncnc32)[C@@H](O)[C@H]1O	–	–	1	1
